{"source": "paper PMC10076671", "about": "“Spider venom-derived peptide JZTX-14 prevents migration and invasion of breast cancer cells via inhibition of sodium channels” (Frontiers in Pharmacology, 2023)", "key": {"MDA-MB-231 cells [1]": {"system": "MDA-MB-231 cells", "assay": "Scratch wound assay (cell migration)", "format": "cell-based, human", "conditions": "12.5 μM, DMEM/F12 containing 0.2% BSA", "protocol": "The MDA-MB-231 cells were seeded into a six-well plate at an appropriate density to form a single layer of cells. After 12 h, a sterile 200 μl pipette tip was used to produce a linear scraping wound, which was cultured with DMEM/F12 containing 0.2% BSA and different concentrations of inhibitors. The cells were imaged at 0 h, 24 h and 48 h, after scratch induction. ImageJ software was used to analyze the images and quantify cell migration."}, "[2]": {"target": "T1, MDA-MB-231 sodium channels (Homo sapiens, UniProt Q14524)", "T1 construct": "host or cells: MDA-MB-231", "assay": "Whole-cell patch clamp, sodium currents in MDA-MB-231 cells", "format": "cell-based", "protocol": "(§1) Sodium currents in experimental cells were recorded at room temperature (22°C–25°C) using an EPC-10 patch-clamp amplifier (HEKA, Germany) in a whole-cell patch-clamp configuration. Recording pipettes were made from borosilicate glass capillaries (VWR, United States) using a PC-10 puller (Narishige, Japan). The inner solution (mM): KCl 130, NaCl 15, CaCl2 0.37, MgCl2 1 EGTA 1, HEPES 10, pH 7.2, resistance was measured as 1.8 MO. The outer solution was composed of (mM): NaCl 140, KCl 3, MgCl2 1, CaCl2 1, HEPES 10, pH 7.2. To minimize voltage errors, the series resistance compensation was set to 80%. The P/4 protocol was used to subtract the linear capacitance and leakage current. Experimental data were acquired and analyzed using the pulse fit 8.0 program (HEKA, Germany). The needed concentrations of toxin dissolved in external solution were applied to the cell surface by microinjector.\nThe biological activity of synthetic JZTX-14 in MDA-MB-231 cells was recorded using the whole-cell patch-clamp method. MDA-MB-231 sodium channels are sensitive to JZTX-14. […] The inward sodium current was induced by a 50 ms depolarisation potential of −30 mV at a holding potential of −100 mV (Figure 3A). The inhibition by JZTX-14 was concentration-dependent (Figure 3B). […] Next, we determined the effects of JZTX-14 on the current-voltage (I–V) curves of sodium channels resulting from a series of currents induced by a set of depolarising potentials ranging from −100 to +60 mV when cells were held at −100 mV (Figure 3C). […] We also investigated the effect of JZTX-14 on the steady-state inactivation of sodium channels in MDA-MB-231 cells. […] shifted the inactivation curves for sodium channels by approximately 10 mV (Figure 3D)."}, "MDA-MB-231 cells [3]": {"system": "MDA-MB-231 cells", "assay": "Transwell assay (cell migration/invasion)", "format": "cell-based, human", "conditions": "24 h incubation, crystal violet staining", "protocol": "Cell migration assay was performed using 24-well transwell plate (Corning, United States). 5×10^4 cells/well were seeded in the upper chamber in DMEM/F12 medium containing 0.1% BSA, the lower chamber contained DMEM/F12% and […]. After 24 h incubation, the cells on the filter membrane were washed three times with PBS, then fixed with 4% paraformaldehyde for 30 min and stained with 0.1% crystal violet for 20 min. The cells on the filter were observed by microscopy and the number of cells was determined using the quantification software ImageJ."}, "Nav1.5 [4]": {"system": "Nav1.5", "format": "cell-based", "conditions": "50 ms depolarisation to −30 mV, holding potential −100 mV, room temperature (22°C–25°C), mean ± SEM", "protocol": "as §1\nTo determine the biological activity of synthetic and natural JZTX-14 on Nav1.5, we observed their effects on HEK293T cells heterologously expressing Nav1.5 using a whole-cell voltage-clamp configuration. The current traces were induced by a 50 ms depolarisation potential of −30 mV at a holding potential of −100 mV. Currents were recorded by adding 0.1 μM and 0.5 μM of JZTX-14 to the solution."}, "MDA-MB-231 cells [5]": {"system": "MDA-MB-231 cells", "assay": "Quantitative real-time PCR validation of migration and invasion-related genes", "format": "cell-based, human", "conditions": "JZTX-14-treated MDA-MB-231 cells"}, "MDA-MB-231 cells [6]": {"system": "MDA-MB-231 cells", "assay": "Western blot analysis of EMT markers", "format": "cell-based, human", "conditions": "compared to controls", "protocol": "Cells treated with different concentrations of JZTX-14 were lysed with RIPA lysis solution and samples were collected. Protein concentrations were determined by BCA assay kit (Biosharp, China) and denatured by adding SDS loading buffer (Bio-Bad, United States) followed by boiling. Equal amounts of total protein lysates were subjected to SDS-PAGE and transferred to PVDF membrane (Merck Millipore, United States), 5% BSA was used for blocking (1 h). Primary antibody (Nav1.5, E-cadherin, GAPDH and Vimentin antibody for Proteintech; N-cadherin for Immunoway) was incubated overnight at 4°C, secondary antibody (Abbkine, China) was incubated for 1 h at room temperature and the membrane was visualized by chemiluminescence."}, "Nav1.5 [7]": {"system": "Nav1.5", "conditions": "HEK293 cells heterologously expressing Nav1.5; ref Zhang et al., 2018; cited from earlier work"}, "MDA-MB-231 cells [8]": {"system": "MDA-MB-231 cells", "assay": "CCK-8 cell proliferation assay", "format": "cell-based, human"}}, "note": "Where two headings read alike, the source gives them in different places. Where a SMILES comes first, the peptide text is derived from it. Bridges are numbered along the chain shown (N, C = ends).", "data": [{"smiles": "CC[C@H](C)[C@H](NC(=O)[C@@H]1CSSC[C@@H]2NC(=O)[C@@H]3CCCN3C(=O)[C@@H]3CCCN3C(=O)[C@H](CCC(N)=O)NC(=O)CNC(=O)[C@@H]3CCCN3C(=O)[C@H](Cc3c[nH]cn3)NC(=O)[C@@H]3CSSC[C@H](NC(=O)[C@H](C)NC(=O)[C@H](CC(C)C)NC(=O)CNC(=O)[C@H](CO)NC(=O)[C@H](CSSC[C@H](NC(=O)CN)C(=O)N[C@@H](CCC(N)=O)C(=O)N[C@@H](CCCCN)C(=O)N[C@@H](Cc4ccccc4)C(=O)N[C@@H](Cc4ccccc4)C(=O)N[C@@H](Cc4c[nH]c5ccccc45)C(=O)N[C@@H]([C@@H](C)O)C(=O)N3)NC2=O)C(=O)N[C@@H]([C@@H](C)O)C(=O)N[C@@H](Cc2c[nH]c3ccccc23)C(=O)N2CCC[C@H]2C(=O)N[C@@H]([C@@H](C)O)C(=O)N[C@@H](CCC(=O)O)C(=O)N[C@@H]([C@@H](C)CC)C(=O)N1)C(=O)N[C@@H](CC(C)C)C(N)=O", "note": "[JZTX-14] (H-GCQKFFWTCHPGQPPCCSGLACTWPTEICIL-NH2; disulfide 2-17, 9-22, 16-29)", "values": [{"measurement": "Inhibition of migration (scratch assay)", "setting": "MDA-MB-231 cells [1]; 24 h", "result": 72, "unit": "%"}, {"measurement": "Inhibition of migration (scratch assay)", "setting": "MDA-MB-231 cells [1]; 48 h", "result": 80, "unit": "%"}, {"measurement": "Inhibition of inward sodium currents (in words)", "setting": "[2]; 500 nM and 1 μM, 50 ms depolarisation to −30 mV, holding potential −100 mV", "result": "inhibited the inward sodium currents"}, {"measurement": "Shift of steady-state inactivation curves of sodium channels", "setting": "[2]; 1 μM (Figure 3D), 6 cells per point, direction not given", "result": "approximately 10 mV"}, {"measurement": "Shift of activation thresholds of sodium channels", "setting": "[2]; 1 μM, in the depolarising direction, I–V curves from −100 to +60 mV, holding potential −100 mV", "result": "approximately 10 mV"}, {"measurement": "IC50", "setting": "[2]; Hill equation fit, 50 ms depolarisation to −30 mV, holding potential −100 mV, synthetic JZTX-14, 6 cells per point, read-out: IC50, inhibition of sodium current", "result": 401, "unit": "nM"}, {"measurement": "Inhibition of cell invasion (transwell)", "setting": "MDA-MB-231 cells [3]; 6 μM", "result": 50, "unit": "%"}, {"measurement": "Inhibition of cell invasion (transwell)", "setting": "MDA-MB-231 cells [3]; 12.5 μM", "result": 75, "unit": "%"}, {"measurement": "Inhibition of Nav1.5 current", "setting": "Nav1.5 [4]; 0.1 μM, listed as Synthetic JZTX-14, 0.1 µM", "result": "30.3% ± 2.5%"}, {"measurement": "Inhibition of Nav1.5 current", "setting": "Nav1.5 [4]; 0.5 μM, listed as Synthetic JZTX-14, 0.5 µM", "result": "53.4% ± 2.5%"}, {"measurement": "ANGPTL4 expression (qPCR)", "setting": "MDA-MB-231 cells [5]", "result": "downregulated"}, {"measurement": "FBXO2 expression (qPCR)", "setting": "MDA-MB-231 cells [5]", "result": "downregulated"}, {"measurement": "GJB3 expression (qPCR)", "setting": "MDA-MB-231 cells [5]", "result": "downregulated"}, {"measurement": "HMGN5 expression (qPCR)", "setting": "MDA-MB-231 cells [5]", "result": "downregulated"}, {"measurement": "IL-24-F expression (qPCR)", "setting": "MDA-MB-231 cells [5]", "result": "upregulated"}, {"measurement": "PLAC1 expression (qPCR)", "setting": "MDA-MB-231 cells [5]", "result": "downregulated"}, {"measurement": "S100A4 expression (qPCR)", "setting": "MDA-MB-231 cells [5]", "result": "downregulated"}, {"measurement": "SERPINB2 expression (qPCR)", "setting": "MDA-MB-231 cells [5]", "result": "upregulated"}, {"measurement": "E-cadherin expression level (western blot)", "setting": "MDA-MB-231 cells [6]; epithelial marker", "result": "significantly increased"}, {"measurement": "MMP2 expression level (western blot)", "setting": "MDA-MB-231 cells [6]; matrix metalloproteinase", "result": "decreased"}, {"measurement": "N-cadherin expression level (western blot)", "setting": "MDA-MB-231 cells [6]; mesenchymal marker", "result": "decreased"}, {"measurement": "Vimentin expression level (western blot)", "setting": "MDA-MB-231 cells [6]; mesenchymal marker", "result": "decreased"}, {"measurement": "Inhibition of Nav1.5 function", "setting": "Nav1.5 [7]", "result": "effectively inhibits"}, {"measurement": "Cell survival rate (CCK-8)", "setting": "MDA-MB-231 cells [8]; 1.5, 3, 6, 12.5, 25, 50, and 100 μM, 24 h, OD 450 nm", "result": "did not affect the survival rate"}, {"measurement": "Cell survival rate (CCK-8)", "setting": "MDA-MB-231 cells [8]; 25, 50, and 100 μM, 48 h, not statistically different compared to the control group", "result": "slightly reduced the survival rate"}]}]}
